Converted amounts (≈) assume the structure as drawn. Residues, ends and D or L forms follow the SMILES beside them.
Assays:
[1] = system: Candida albicans (ATCC 10231); experiment: microbe, parasite or virus in culture; type: cell-based; settings: ATCC 10231, 48 h; read-out: Minimum inhibitory concentration (MIC)
Procedure: (§1) The anti- fungal activity of peptides was performed according to the standard micro broth dilution technique as per NCCLS guidelines. These plates were incubated in a moist chamber at 35 °C, and an absorbance at 492 nm was recorded on a VersaMax microplate reader after 48 h for C. albicans ATCC 10231 and C. parapsilosis ATCC 22019 and 72 h for C. neoformans.

Cryptococcus neoformans = experiment: microbe, parasite or virus in culture; type: cell-based; settings: 72 h; read-out: Minimum inhibitory concentration (MIC)
Procedure: as §1

[2] = system: Candida parapsilosis (ATCC 22019); experiment: microbe, parasite or virus in culture; type: cell-based; settings: ATCC 22019, 48 h; read-out: Minimum inhibitory concentration (MIC)
Procedure: as §1

[3] = system: LPS-induced TNF-α, IL-6 and IFN-γ in serum of BALB/c mice; experiment: In vivo inhibition of LPS mediated cytokine production; parameters: species or system mouse; settings: LPS 10 mgKg−1 plus peptide 3 mgKg−1, 1, 2, 4, 6 h, ELISA, versus LPS only
Procedure: Enzyme-linked immunosorbent assays (ELISAs) were carried out to estimate the amount of tumor necrosis factor alpha (TNF-α) and interleukin-1β (IL-1β) secreted by LPS-treated THP-1 cells in the presence of peptides after 4–6 h of incubation. The levels of these cytokines in the culture supernatant of untreated and LPS-treated cells were taken as the negative and positive respectively, to calculate the percent inhibition by the peptides. For RANTES estimation the peptide LPS incubation was kept up to 24 h. The experiments were repeated twice reported as percentage inhibition. The absorbance of LPS treated cell supernatant was taken as zero inhibition. Similar ELISAs were performed to estimate the amount of TNF-α IL-6 and IFN-γ secreted by BALB/c mouse blood, which was collected from the orbital sinus at different time points post LPS injection, by using enzyme-linked immunosorbent assay kits for mouse TNF-α (BD Biosciences), IL-6 (BD Biosciences) and IFN-γ (BD Biosciences).
All the mice were divided into three experimental groups. Except the control group which was injected with PBS only, the other two groups were challenged with E. coli O111: B4 LPS at 10 mgkg^−1 of body weight in the presence and in the absence of 3 mgkg^−1 peptide. Blood was collected 1, 2, 4 and 6 h post LPS and peptide injection by the retro-orbital bleeding of mice. […]

CC[C@H](C)[C@H](NC(=O)[C@H](C)NC(=O)[C@H](CCCCN)NC(=O)[C@@H]1CCCN1C(=O)[C@H](C)NC(=O)[C@H](Cc1c[nH]cn1)NC(=O)[C@@H](NC(=O)[C@H](C)NC(=O)CNC(=O)[C@H](CCCCN)NC(=O)[C@@H](NC(=O)[C@H](CC(C)C)NC(=O)[C@H](Cc1c[nH]c2ccccc12)NC(=O)CNC(=O)[C@H](Cc1ccccc1)NC(=O)[C@@H](N)Cc1ccccc1)[C@@H](C)CC)[C@@H](C)CC)C(=O)N[C@@H](Cc1c[nH]cn1)C(=O)NCC(=O)N[C@@H](CC(C)C)C(=O)N[C@H](C(=O)N[C@@H](Cc1c[nH]cn1)C(=O)N[C@@H](CCCNC(=N)N)C(=O)N[C@@H](CCCNC(=N)N)C(=O)N[C@@H](CCCNC(=N)N)C(=O)N[C@@H](Cc1c[nH]cn1)C(N)=O)[C@@H](C)CC [Peptide G13P-Chr-1] (H-FFGWLIKGAIHAPKAIHGLIHRRRH-NH2)
MIC [1]: 13.6 µM (≈ 39.9 µg/mL)
MIC (Cryptococcus neoformans): 13.6 µM (≈ 39.9 µg/mL)
MIC [2]: 6.8 µM (≈ 19.9 µg/mL)
LPS-induced production of TNF-α, IL-6 and IFN-γ in serum [3]: significant reduction

Reference: article PMC5469811, “Identification of GXXXXG motif in Chrysophsin-1 and its implication in the design of analogs with cell-selective antimicrobial and anti-endotoxin activities” (Scientific Reports, 2017)
